As a reminder, the IC50 is the concentration that gives 50% inhibition. Lower therefore signals inhibition by little substance.

Counter-ions that a name gives are not always drawn.

For 43 compounds, IC50 results are on record in US10421718B2, “EBNA1 inhibitors and their method of use” (priority 2013, dated 2019).

This test concerns the target T1, His-EBNA1 (DNA binding domain of EBNA1, amino acids 459-607) (Epstein-Barr virus, UniProt P03211).
T1 construct: made in house; host or cells: E. coli
As to the kind of experiment: Inhibition of 5′-biotin-oPL4624 binding to His-EBNA1 using Alpha Screen technology. The settings on record: Alpha Screen Activity (IC50, inhibition of 5′-biotin-oPL4624 binding to His-EBNA1), 15 nM His-EBNA1, 0.2 nM bt-oPL4624, 2 hr room temperature. How it is done:
Inhibition of 5′-biotin-oPL4624 binding to His-EBNA1 using Alpha Screen technology: Assays were performed using the DNA binding domain of EBNA1 (amino acids 459-607), which was His-tagged (His-EBNA1) and the self-complementary biotinylated (bt) oligonucleotide with the sequence 5′-bt-[…]-ATGCTACCC-3′ (bt-oPL4624). The protein was expressed in E. coli and purified according to Barwell, et al. (Barwell J A, Bochkarev A, Pfuetzner R A, Tong H, Yang D S, Frappier L, Edwards A M. (1995) Overexpression, purification, and crystallization of the DNA binding and dimerization domains of the Epstein-Barr virus nuclear antigen 1. J Biol Chem. 270: 20556-9.). The bt-oPL4624 oligonucleotide was purchased from Integrated DNA Technologies, Inc (IDT). AlphaScreen donor, acceptor beads and white, opaque 384-well assay plates were purchased from PerkinElmer, Inc.
Assays contained 15 nM His-EBNA1, 0.2 nM bt-oPL4624, 5 μg/mL AlphaScreen streptavidin donor beads and nickel chelate acceptor beads, and a series of concentrations of test compound ranging from 3.2 nM to 100 μM in a total volume of 40 μL assay buffer (25 mM Tris, pH 7.2, 160 mM NaCl, 1 mM MgCl2). His-EBNA1 (30 nM) and bt-oPL4624 (0.4 nM) were preincubated with 10 μg/mL nickel chelate AlphaScreen acceptor bead, or 10 μg/mL streptavidin AlphaScreen donor bead, respectively, for 30 minutes at room temperature in assay buffer. Twenty microliters of His-EBNA1/acceptor bead mix and bt-oPL4624/donor bead mix were transferred to assay plates containing […] of 1:3 serial dilutions of test compounds previously prepared in DMSO at concentrations ranging from 0.32 μM to 10 mM. Nonspecific binding was determined with 5 μg/mL AlphaScreen acceptor bead in the absence of His-EBNA1. After 2 hr incubation at room temperature, the AlphaScreen signal was measured on the Envision plate reader (PerkinElmer, Inc.) at 680 nm excitation and 570 nm emission. Inhibition values at each concentration of test compound were determined by setting 100% equal to raw data values in the absence of EBNA1 and 0% equal to the raw data values in the presence of EBNA1. Nonlinear regression fits of the inhibition values to a one-site dose-response equation were performed using GraphPad Prism.
Background: Alpha assays give light when donor and acceptor beads are brought close together.

T1 sequence (P03211 459-607): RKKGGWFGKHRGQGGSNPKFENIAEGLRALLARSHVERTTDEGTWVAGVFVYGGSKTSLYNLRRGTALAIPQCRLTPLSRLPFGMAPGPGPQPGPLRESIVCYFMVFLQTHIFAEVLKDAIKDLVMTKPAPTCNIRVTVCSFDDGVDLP

For `Nc1c(C#Cc2ccc3cc[nH]c3c2)cccc1C(=O)O` [Entry 80, 2-amino-3-[2-(1H-indol-6-yl)ethynyl]benzoic acid], the 50% inhibitory concentration (IC50) is < 1 µM.

As for `Nc1c(C#Cc2ccc3[nH]ccc3c2)cccc1C(=O)O` [Entry 81], the IC50 was < 1 µM.

In turn, `Nc1c(C#Cc2cccc(CO)c2)cccc1C(=O)O` [Entry 82, 2-amino-3-{2-[3-(hydroxymethyl)phenyl]ethynyl}benzoic acid] displayed an IC50 of 1 to 10 µM.

In turn, `Nc1c(C#Cc2cccc(O)c2)cccc1C(=O)O` [Entry 83] returned a half-inhibitory concentration (IC50) of 1 to 10 µM.

Regarding `Nc1c(C#Cc2ccccc2)cccc1C(=O)O` [Entry 84], the IC50 lay within 10 to 100 µM.

On to `O=C(O)c1cccc(C#Cc2ccccc2)c1F` [Entry 85, 2-fluoro-3-(2-phenylethynyl)benzoic acid], for which the IC50 is 1 to 10 µM.

Regarding `O=C(O)c1cccc(C#Cc2c[nH]c3ncccc23)c1F` [Entry 86, 2-fluoro-3-(2-{1H-pyrrolo[2,3-b]pyridin-3-yl}ethynyl)benzoic acid], the IC50 was 10 to 100 µM.

In the case of `O=C(O)c1cccc(C#Cc2cnc3cnccn23)c1F` [Entry 87, 2-fluoro-3-(2-{imidazo[1,2-a]pyrazin-3-yl}ethynyl)benzoic acid], the IC50 is < 1 µM.

`O=C(O)c1cccc(C#Cc2ccccc2CO)c1F` [Entry 88, 2-fluoro-3-{2-[2-(hydroxymethyl)phenyl]ethynyl}benzoic acid] displayed an IC50 of 1 to 10 µM.

Compound `O=C(O)c1cccc(C#Cc2cscn2)c1F` [Entry 89] yielded an IC50 of 1 to 10 µM.

Regarding `O=C(O)c1cccc(C#Cc2ccccn2)c1` [Entry 90, 3-[2-(pyridin-2-yl)ethynyl]benzoic acid], the IC50 was in the range of 100 to 1000 µM.

`O=C(O)c1cccc(C#Cc2cccnc2)c1` [Entry 91, 3-[2-(pyridin-3-yl)ethynyl]benzoic acid]: the IC50 fell in the range of 1 to 10 µM.

For `O=C(O)c1cccc(C#Cc2ccccc2)c1` [Entry 92, 3-(2-phenylethynyl)benzoic acid], the 50% inhibitory concentration (IC50) was 10 to 100 µM.

For the compound `O=C(O)c1cccc(C#Cc2ccncc2)c1` [Entry 93, 3-[2-(pyridin-4-yl)ethynyl]benzoic acid], the IC50 lay in the range of 1 to 10 µM.

With `COc1ccc(C#Cc2cccc(C(=O)O)c2)cc1` [Entry 94, 3-[2-(4-methoxyphenyl)ethynyl]benzoic acid], the IC50 lay in the range of 100 to 1000 µM.

Compound `CN(C)Cc1ccc(-c2c(C#Cc3ccccc3)cccc2C(=O)O)cc1` [Entry 95, 2-{4-[(dimethylamino)methyl]phenyl}-3-(2-phenylethynyl)benzoic acid trifluoroacetic acid salt] displayed an IC50 of 1 to 10 µM.

In turn, `O=C(O)c1cccc(C#Cc2ccccc2)c1C1=CCNCC1` [Entry 96, 3-(2-phenylethynyl)-2-(1,2,3,6-tetrahydropyridin-4-yl)benzoic acid trifluoroacetic acid salt] registered an IC50 of 1 to 10 µM.

On to `O=C(O)c1cccc(C#Cc2ccccc2)c1-c1ccncc1` [Entry 97, 3-(2-phenylethynyl)-2-(pyridin-4-yl)benzoic acid trifluoroacetic acid salt], for which the IC50 is 10 to 100 µM.

On to `CS(=O)(=O)c1ccc(-c2c(C#Cc3ccccc3)cccc2C(=O)O)cc1` [Entry 98, 2-(4-methanesulfonylphenyl)-3-(2-phenylethynyl)benzoic acid], for which the IC50 fell in the range of 10 to 100 µM.

`O=C(O)c1cccc(C#Cc2ccccc2)c1-c1cn[nH]c1` [Entry 99, 3-(2-phenylethynyl)-2-(1H-pyrazol-4-yl)benzoic acid] had a half-inhibitory concentration (IC50) of 1 to 10 µM.

In the case of `O=C(O)c1cccc(C#Cc2ccccc2)c1-c1cncnc1` [Entry 100, 3-(2-phenylethynyl)-2-(pyrimidin-5-yl)benzoic acid], the IC50 lay within 100 to 1000 µM.

`Cn1cc(-c2c(C#Cc3ccccc3)cccc2C(=O)O)cn1` [Entry 101, 2-(1-methyl-1H-pyrazol-4-yl)-3-(2-phenylethynyl)benzoic acid] came in with an IC50 of 1 to 10 µM.

Take `O=C(O)c1cccc(C#Cc2ccccc2)c1N1CCCC1c1ccccc1` (stereo not shown) [Entry 102, 3-(2-phenylethynyl)-2-(2-phenylpyrrolidin-1-yl)benzoic acid]: the IC50 lay within 1 to 10 µM.

Regarding `CN(C)C1CCN(c2c(C#Cc3ccccc3)cccc2C(=O)O)C1` (stereo not shown) [Entry 103, 2-(3-(dimethylamino)pyrrolidin-1-yl)-3-(phenylethynyl)benzoic acid], the IC50 fell in the range of 10 to 100 µM.

`O=C(O)c1cccc(C#Cc2ccccc2)c1N1CCC(C(=O)O)C1` (stereo not shown) [Entry 104, 1-(2-carboxy-6-(phenylethynyl)phenyl)pyrrolidine-3-carboxylic acid] gave an IC50 of 10 to 100 µM.

`O=C(O)c1cccc(C#Cc2ccccc2)c1N1CC[C@H](O)C1` [Entry 105, (S)-2-(3-hydroxypyrrolidin-1-yl)-3-(phenylethynyl)benzoic acid]: the IC50 is 100 to 1000 µM.

As to `O=C(O)c1cccc(C#Cc2ccccc2)c1N1CCCC1` [Entry 106, 3-(phenylethynyl)-2-(pyrrolidin-1-yl)benzoic acid], the IC50 fell in the range of 10 to 100 µM.

For `O=C(O)c1cccc(C#Cc2ccccc2)c1N1CCNCC1` [Entry 107, 3-(phenylethynyl)-2-(piperazin-1-yl)benzoic acid], the IC50 was 10 to 100 µM.

The compound `O=C(O)c1cccc(C#Cc2ccccc2)c1NCc1ccccc1` [Entry 108, 2-(benzylamino)-3-(phenylethynyl)benzoic acid] came in with an IC50 of 10 to 100 µM.

Consider `O=C(O)c1cccc(C#Cc2ccccc2)c1-n1cc(-c2ccccc2)nn1` [Entry 109, 2-(4-phenyl-1H-1,2,3-triazol-1-yl)-3-(2-phenylethynyl)benzoic acid], for which the IC50 lay within 10 to 100 µM.

`COc1cccc(-c2cn(-c3c(C#Cc4ccccc4)cccc3C(=O)O)nn2)c1` [Entry 110, 2-(4-(3-methoxyphenyl)-1H-1,2,3-triazol-1-yl)-3-(phenylethynyl)benzoic acid]: the IC50 was 10 to 100 µM.

Turning to `O=C(O)c1cccc(C#Cc2ccccc2)c1-n1cc(-c2cccnc2)nn1` [Entry 111, 3-(phenylethynyl)-2-(4-(pyridin-3-yl)-1H-1,2,3-triazol-1-yl)benzoic acid], the IC50 fell in the range of 10 to 100 µM.

`O=C(O)c1cccc(C#Cc2ccccc2)c1-n1cc(CCCO)nn1` [Entry 112, 2-(4-(3-hydroxypropyl)-1H-1,2,3-triazol-1-yl)-3-(phenylethynyl)benzoic acid] yielded an IC50 of 10 to 100 µM.

Turning to `CN(C)S(=O)(=O)NC(=O)c1cccc(C#Cc2ccccc2)c1-n1cccc1` [Entry 113, N-(Dimethylsulfamoyl)-3-(2-phenylethynyl)-2-(1H-pyrrol-1-yl)benzamide], the IC50 lay within 1 to 10 µM.

For the compound `CN(C)S(=O)(=O)NC(=O)c1cccc(C#Cc2ccc(F)cc2)c1-n1cccc1` [Entry 114, N-(Dimethylsulfamoyl)-3-[2-(4-fluorophenyl)ethynyl]-2-(1H-pyrrol-1-yl)benzamide], the IC50 is 1 to 10 µM.

For the compound `O=C(NS(=O)(=O)N1CCOCC1)c1cccc(C#Cc2ccccc2)c1-n1cccc1` [Entry 115, N-(morpholine-4-sulfonyl)-3-(2-phenylethynyl)-2-(1H-pyrrol-1-yl)benzamide], the IC50 was 100 to 1000 µM.

In turn, `O=C(NS(=O)(=O)N1CCS(=O)(=O)CC1)c1cccc(C#Cc2ccccc2)c1-n1cccc1` [Entry 116] yielded an IC50 of 10 to 100 µM.

Compound `CS(=O)(=O)NC(=O)c1cccc(C#Cc2ccc(F)cc2)c1-n1cccc1` [Entry 117, 3-[2-(4-fluorophenyl)ethynyl]-N-methanesulfonyl-2-(1H-pyrrol-1-yl)benzamide] yielded an IC50 of 10 to 100 µM.

Regarding `NS(=O)(=O)NC(=O)c1cccc(C#Cc2ccccc2)c1-n1cccc1` [Entry 118, 3-(phenylethynyl)-2-(1H-pyrrol-1-yl)-N-sulfamoylbenzamide], the IC50 was in the range of 10 to 100 µM.

`COc1ccc(-c2c(C#Cc3ccccc3)cccc2C(=O)O)cc1` [Entry 119, 2-(4-methoxyphenyl)-3-(2-phenylethynyl)benzoic acid] gave an IC50 of 1 to 10 µM.

The compound `COc1cccc(-c2c(C#Cc3ccccc3)cccc2C(=O)O)c1` [Entry 120, 2-(3-methoxyphenyl)-3-(2-phenylethynyl)benzoic acid] showed an IC50 of 1 to 10 µM.

In turn, `COc1ccccc1-c1c(C#Cc2ccccc2)cccc1C(=O)O` [Entry 121, 2-(2-methoxyphenyl)-3-(2-phenylethynyl)benzoic acid] came in with an IC50 of 10 to 100 µM.

Turning to `O=C(O)c1cccc(C#Cc2ccccc2)c1-c1cnc2ccccc2c1` [Entry 122, 3-(2-phenylethynyl)-2-(quinolin-3-yl)benzoic acid], the half-inhibitory concentration (IC50) was 10 to 100 µM.
